In patent US12371460B2, “Glycan-binding proteins and related compositions and methods” (priority 2019, dated 2025):

Biological target: Sulfolobus solfataricus Sso7d (rcSso7d, SEQ ID NO: 1) variant clone E, SEQ ID NO: 398 (Saccharolobus solfataricus, UniProt P61991, A45G/K22H/K28Q/K40A/K7T/K9Q/M29W/R43W/S31W/T33I/T41K/V26W/W24R)
Test: biolayer interferometry, clone E immobilized on Ni-NTA tip
Type: binding
Conditions: 1 uM solution of the sugar; FIG. 2E
From the text: The traces show an increase in nm as sugar starts binding to protein on the tip, then a decrease in nm as the tip is moved from the sugar solution to buffer only.

Sulfolobus solfataricus Sso7d (rcSso7d, SEQ ID NO: 1) variant clone E, SEQ ID NO: 398, sequence (P61991 other isoform, or with tags, fused parts or gaps with the stated changes): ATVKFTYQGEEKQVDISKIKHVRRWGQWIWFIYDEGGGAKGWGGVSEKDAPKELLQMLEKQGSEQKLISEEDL

SMILES: CC(=O)N[C@@H]1[C@@H](O[C@@H]2O[C@H](CO)[C@H](O)[C@H](O)[C@H]2O)[C@@H](O)[C@@H](CO)O[C@@H]1O [TF antigen, Galβ1-3GalNAcα]
- binding (biolayer interferometry traces): bound
